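Results reflect a 48-hour exposure of cells in 96-well plates to compound at five concentrations. Here, GI50 denotes the concentration required for 50% inhibition of growth.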 Activity calls are given as the source filed them. Rule as the data show it: active = GI50 up to about 1.1 µM and inactive = higher.
How the values were obtained:
Test in all cases: growth of human tumour cells (NCI), 48 h
IGROV-1 = tested on: IGROV-1
A498 = tested on: A498
SK-MEL-28 = tested on: SK-MEL-28
OVCAR-4 = tested on: OVCAR-4
MOLT-4 = tested on: MOLT-4
786-0 = tested on: 786-0
A549 = tested on: A549
HCT-116 = tested on: HCT-116
KM12 = tested on: KM12
U-251 = tested on: U-251
UO-31 = tested on: UO-31
COLO 205 = tested on: COLO 205
SNB-19 = tested on: SNB-19
CCRF-CEM = tested on: CCRF-CEM
HOP-62 = tested on: HOP-62
K562 = tested on: K562
SF-268 = tested on: SF-268
OVCAR-3 = tested on: OVCAR-3
LOX IMVI = tested on: LOX IMVI

Measured: GI50

Cc1cc2c(=O)c3ccccc3oc2c(C#N)c1C
inactive: IGROV-1 > 100 µM | A498 > 100 µM | SK-MEL-28 > 100 µM | OVCAR-4 > 100 µM | MOLT-4 > 100 µM | 786-0 > 100 µM | A549 > 100 µM | HCT-116 > 100 µM | KM12 > 100 µM | U-251 > 100 µM | UO-31 > 100 µM | COLO 205 > 100 µM | SNB-19 > 100 µM | CCRF-CEM > 100 µM | HOP-62 > 100 µM | K562 > 100 µM | SF-268 > 100 µM

O=C1NCC2=C1CCC1c3ccccc3CCN21 (stereo not given)
inactive: IGROV-1 > 100 µM | A498 > 100 µM | OVCAR-3 > 100 µM | SK-MEL-28 > 100 µM | MOLT-4 > 100 µM | 786-0 > 100 µM | A549 > 100 µM | LOX IMVI > 100 µM | HCT-116 > 100 µM | KM12 > 100 µM | U-251 > 100 µM | UO-31 > 100 µM | COLO 205 > 100 µM | SNB-19 > 100 µM | CCRF-CEM > 100 µM | SF-268 > 100 µM

COC(=O)c1cc(-c2cccn2C)c2c(c1C(=O)OC)c1ccccc1n2C
inactive: IGROV-1 > 100 µM | OVCAR-3 12.7 µM | SK-MEL-28 71.1 µM | OVCAR-4 37.8 µM | MOLT-4 3.13 µM | 786-0 > 100 µM | A549 31.8 µM | LOX IMVI 56 µM | KM12 53.7 µM | U-251 70.5 µM | UO-31 > 100 µM | COLO 205 32.9 µM | SNB-19 > 100 µM | K562 13.5 µM

COc1ccc2c(c1)Oc1cc(O)ccc1[C@H]2c1ccccc1C(=O)NC(C)c1ccccc1 (stereo not given in full)
inactive: IGROV-1 15.1 µM | A498 16.9 µM | OVCAR-3 12.3 µM | SK-MEL-28 17.7 µM | MOLT-4 9.73 µM | 786-0 17.9 µM | A549 13.2 µM | LOX IMVI 16.9 µM | HCT-116 13.6 µM | KM12 14.3 µM | U-251 14.4 µM | UO-31 10.9 µM | COLO 205 17.1 µM | SNB-19 17.6 µM | CCRF-CEM 16 µM | HOP-62 18.8 µM | K562 16.8 µM | SF-268 19 µM

Cc1ccc(S(=O)(=O)NC(=O)NCCc2ccc(O)c(O)c2)cc1
inactive: IGROV-1 > 100 µM | A498 > 100 µM | OVCAR-3 > 100 µM | SK-MEL-28 > 100 µM | OVCAR-4 > 100 µM | MOLT-4 58.2 µM | 786-0 > 100 µM | A549 > 100 µM | LOX IMVI 53.6 µM | HCT-116 > 100 µM | KM12 > 100 µM | U-251 > 100 µM | UO-31 > 100 µM | COLO 205 > 100 µM | SNB-19 > 100 µM | HOP-62 > 100 µM | K562 > 100 µM | SF-268 > 100 µM

Cc1ccc(S(=O)(=O)NC2C(=O)c3ccccc3C(=O)C2n2ccnc2)cc1 (stereo not given)
inactive: IGROV-1 > 100 µM | OVCAR-3 42.5 µM | SK-MEL-28 > 100 µM | OVCAR-4 30.9 µM | MOLT-4 25.7 µM | 786-0 17.4 µM | A549 > 100 µM | LOX IMVI 12.2 µM | HCT-116 20.4 µM | KM12 > 100 µM | U-251 > 100 µM | UO-31 > 100 µM | COLO 205 71 µM | SNB-19 > 100 µM | CCRF-CEM 20 µM | HOP-62 > 100 µM | K562 > 100 µM | SF-268 > 100 µM

Cc1cccc(NC(=O)/C(=N\N)C(c2cnc3ccc([N+](=O)[O-])cc3n2)[N+](=O)[O-])c1C (stereo not given)
inactive: IGROV-1 > 100 µM | OVCAR-3 > 100 µM | SK-MEL-28 > 100 µM | OVCAR-4 > 100 µM | MOLT-4 > 100 µM | 786-0 > 100 µM | A549 > 100 µM | LOX IMVI 74.8 µM | HCT-116 > 100 µM | KM12 41.8 µM | UO-31 > 100 µM | COLO 205 > 100 µM | SNB-19 > 100 µM | CCRF-CEM > 100 µM | HOP-62 > 100 µM | SF-268 > 100 µM

COc1ccc2nc(-c3ccc(O)cc3)ccc2c1
inactive: IGROV-1 > 100 µM | OVCAR-3 > 100 µM | SK-MEL-28 > 100 µM | OVCAR-4 > 100 µM | MOLT-4 > 100 µM | 786-0 > 100 µM | A549 > 100 µM | LOX IMVI > 100 µM | HCT-116 > 100 µM | KM12 > 100 µM | UO-31 > 100 µM | COLO 205 > 100 µM | SNB-19 > 100 µM | CCRF-CEM 2.16 µM | HOP-62 > 100 µM | K562 > 100 µM | SF-268 1.22 µM

C[C@]12CCC(=O)C=C1CC[C@@H]1[C@@H]2C(=O)C[C@@]2(C)[C@H]1CC[C@]2(O)C(=O)CO [CORTISONE]
inactive: IGROV-1 > 100 µM | A498 > 100 µM | OVCAR-3 > 100 µM | SK-MEL-28 > 100 µM | OVCAR-4 > 100 µM | MOLT-4 > 100 µM | 786-0 > 100 µM | A549 > 100 µM | HCT-116 > 100 µM | KM12 > 100 µM | U-251 > 100 µM | UO-31 > 100 µM | COLO 205 > 100 µM | SNB-19 > 100 µM | CCRF-CEM > 100 µM | K562 > 100 µM | SF-268 > 100 µM

COC(=O)C1=NC(=S)NC(c2ccccc2)C1c1nc2ccccc2s1 (stereo not given)
inactive: IGROV-1 > 100 µM | A498 > 100 µM | OVCAR-3 > 100 µM | SK-MEL-28 > 100 µM | OVCAR-4 > 100 µM | MOLT-4 > 100 µM | 786-0 > 100 µM | A549 > 100 µM | HCT-116 > 100 µM | KM12 > 100 µM | U-251 > 100 µM | UO-31 > 100 µM | COLO 205 > 100 µM | SNB-19 > 100 µM | CCRF-CEM > 100 µM | HOP-62 > 100 µM | SF-268 > 100 µM

N#CC(/C(CCC(=O)Nc1ccc(Cl)cc1)=N/NC(=O)c1cc2ccccc2cc1O)c1ccccc1 (stereo not given)
inactive: IGROV-1 31.7 µM | OVCAR-3 30.5 µM | SK-MEL-28 48.8 µM | OVCAR-4 51.9 µM | MOLT-4 22.2 µM | 786-0 38.3 µM | A549 40.8 µM | LOX IMVI 14.5 µM | HCT-116 31.3 µM | KM12 35.9 µM | U-251 32.8 µM | UO-31 36.8 µM | COLO 205 40.3 µM | SNB-19 47.9 µM | CCRF-CEM 10.2 µM | HOP-62 31.3 µM | SF-268 25.4 µM
